From patent US20240239764A1, “SUBSTITUTED AMINOBENZYL HETEROARYL COMPOUNDS AS EGFR AND/OR PI3K INHIBITORS” (Mekanistic Therapeutics, priority 2020, published 2024)
Like-named read-outs stand apart in the source and are kept apart here. Values belong to the molecule of their own block, whether it stands above or below them.

What was measured:
PI3Ka = PI3Ka (Homo sapiens, UniProt P42336); assay: Z′-LYTE / ADAPTA kinase assay, PI3Ka; type: biochemical; conditions: for inhibition at 0.1 µM: read-out: PI3Ka % Inh. @100 nM
Chain of PI3Ka (P42336 whole entry): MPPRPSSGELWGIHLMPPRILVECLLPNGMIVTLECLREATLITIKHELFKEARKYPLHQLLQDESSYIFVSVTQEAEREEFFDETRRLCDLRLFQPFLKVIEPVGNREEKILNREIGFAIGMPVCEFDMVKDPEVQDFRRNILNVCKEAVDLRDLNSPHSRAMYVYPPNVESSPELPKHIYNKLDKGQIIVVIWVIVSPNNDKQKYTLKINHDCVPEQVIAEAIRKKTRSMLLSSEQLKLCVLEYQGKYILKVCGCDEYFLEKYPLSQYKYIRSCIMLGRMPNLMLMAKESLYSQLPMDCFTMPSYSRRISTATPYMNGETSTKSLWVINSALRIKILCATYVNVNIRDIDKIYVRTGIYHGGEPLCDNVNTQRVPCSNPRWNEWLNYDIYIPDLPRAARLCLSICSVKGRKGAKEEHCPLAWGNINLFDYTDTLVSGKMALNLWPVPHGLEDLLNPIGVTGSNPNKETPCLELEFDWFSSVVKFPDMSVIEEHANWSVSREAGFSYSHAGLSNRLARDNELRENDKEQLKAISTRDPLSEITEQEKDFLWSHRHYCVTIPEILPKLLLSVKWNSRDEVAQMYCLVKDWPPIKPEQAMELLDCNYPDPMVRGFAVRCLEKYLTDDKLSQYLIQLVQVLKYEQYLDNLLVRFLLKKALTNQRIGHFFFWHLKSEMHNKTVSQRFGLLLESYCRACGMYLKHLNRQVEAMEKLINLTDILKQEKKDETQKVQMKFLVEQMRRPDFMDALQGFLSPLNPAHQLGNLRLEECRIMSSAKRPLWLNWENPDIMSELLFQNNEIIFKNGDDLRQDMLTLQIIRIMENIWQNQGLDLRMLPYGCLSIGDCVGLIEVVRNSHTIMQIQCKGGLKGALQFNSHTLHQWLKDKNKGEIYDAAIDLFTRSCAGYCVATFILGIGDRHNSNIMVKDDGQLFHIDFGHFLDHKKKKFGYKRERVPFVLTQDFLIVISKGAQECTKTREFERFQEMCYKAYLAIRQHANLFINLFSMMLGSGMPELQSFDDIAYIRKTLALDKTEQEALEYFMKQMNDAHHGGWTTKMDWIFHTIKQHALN
Chain of PI3Ka (P27986 whole entry partner): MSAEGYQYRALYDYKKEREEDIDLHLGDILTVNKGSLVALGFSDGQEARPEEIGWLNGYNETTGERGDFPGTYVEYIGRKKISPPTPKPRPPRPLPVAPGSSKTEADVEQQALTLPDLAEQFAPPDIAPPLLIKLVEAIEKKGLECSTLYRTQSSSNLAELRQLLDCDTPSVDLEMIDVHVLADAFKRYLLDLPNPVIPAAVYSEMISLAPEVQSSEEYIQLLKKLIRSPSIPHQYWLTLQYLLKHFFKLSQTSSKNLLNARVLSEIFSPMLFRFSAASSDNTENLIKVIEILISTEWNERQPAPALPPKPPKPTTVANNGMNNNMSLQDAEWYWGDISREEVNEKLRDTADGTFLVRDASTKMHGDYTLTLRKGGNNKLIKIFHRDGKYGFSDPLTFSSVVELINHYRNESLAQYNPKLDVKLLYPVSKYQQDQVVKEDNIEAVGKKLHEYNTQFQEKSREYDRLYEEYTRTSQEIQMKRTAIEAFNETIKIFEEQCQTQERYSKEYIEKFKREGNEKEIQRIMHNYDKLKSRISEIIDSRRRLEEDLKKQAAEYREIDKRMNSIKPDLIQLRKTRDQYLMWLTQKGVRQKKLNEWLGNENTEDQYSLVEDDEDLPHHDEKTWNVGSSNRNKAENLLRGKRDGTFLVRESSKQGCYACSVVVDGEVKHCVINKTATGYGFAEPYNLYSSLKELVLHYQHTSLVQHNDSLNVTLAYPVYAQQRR
Excerpt: (§1) The Z′-LYTE® biochemical assay employs a fluorescence-based, coupled-enzyme format and is based on the differential sensitivity of phosphorylated and non-phosphorylated peptides to proteolytic cleavage (FIG. 6). The peptide substrate is labeled with two fluorophores—one at each end—that make up a FRET pair. In the primary reaction, the kinase transfers the gamma-phosphate of ATP to a single tyrosine, serine or threonine residue in a synthetic FRET-peptide. In the secondary reaction, a site-specific protease recognizes and cleaves non-phosphorylated FRET-peptides. Phosphorylation of FRET-peptides suppresses cleavage by the Development Reagent. Cleavage disrupts FRET between the donor (i.e., coumarin) and acceptor (i.e., fluorescein) fluorophores on the FRET-peptide, whereas uncleaved, phosphorylated FRET-peptides maintain FRET. A ratiometric method, which calculates the ratio (the Emission Ratio) of donor emission to acceptor emission after excitation of the donor fluorophore at 400 nm, is used to quantitate reaction progress.
A significant benefit of this ratiometric method for quantitating reaction progress is the elimination of well-to-well variations in FRET-peptide concentration and signal intensities. As a result, the assay yields very high Z′-factor values (>0.7) at a low percent phosphorylation.
Both cleaved and uncleaved FRET-peptides contribute to the fluorescence signals and therefore to the Emission Ratio. The extent of phosphorylation of the FRET-peptide can be calculated from the Emission Ratio.
Enzyme: The ADAPTA universal kinase assay is a homogenous, fluorescent based immunoassay for the detection of ADP. In contrast to ATP depletion assays, the ADAPTA assay is extremely sensitive to ADP formation such that a majority of the signal change occurs in the first 10-20% conversion of ATP to ADP. This makes the ADAPTA universal kinase assay ideally suited for use with low activity kinases.
The principle of the ADAPTA universal kinase assay is outlined below. The assay itself can be divided into two phases: a kinase reaction phase, and an ADP detection phase. In the kinase reaction phase, all components required for the kinase reaction are added to the well, and the reaction is allowed to incubate for 60 minutes. After the reaction, a detection solution consisting of a europium labeled anti-ADP antibody, an AlexaFluor® 647 labeled ADP tracer, and EDTA (to stop the kinase reaction) is added to the assay well. ADP formed by the kinase reaction (in the absence of an inhibitor) will displace the Alexa Fluor®647 labeled ADP tracer from the antibody, resulting in a decrease in the TR-FRET signal.
Test Compounds: The Test Compounds are screened in 1% DMSO (final) in the well. For 10 point titrations, 3-fold serial dilutions are conducted from the starting concentration.
Peptide/Kinase Mixtures: All Peptide/Kinase Mixtures are diluted to a 2× working concentration in the appropriate Kinase Buffer.
ATP Solution: All ATP Solutions are diluted to a 4× working concentration in Kinase Buffer (50 mM HEPES pH 7.5, 0.01% BRIJ-35, 10 mM MgCl2, 1 mM EGTA). ATP Km apparent is previously determined using a Z′-LYTE® assay.
Development Reagent Solution: The Development Reagent is diluted in Development Buffer.
10× Novel PKC Lipid Mix: 2 mg/mL Phosphatidyl Serine, 0.2 mg/mL DAG in 20 mM HEPES, pH 7.4, 0.3% CHAPS. For 5 mL 10× Novel PKC Lipid Mix: 1. Add 10 mgs Phosphatidyl Serine (Avanti Polar Lipids Part #8400032C or 840039C) and 1 mg DAG (Avanti Polar Lipids Part #800811 C) to a glass tube. 2. Remove the chloroform from lipid mixture by evaporating to a clear, thin film under a stream of nitrogen. Continuous rotation of the tube, at an angle to ensure maximum surface area of the lipid solution, will promote the thinnest film. 3. Add 5 mLs resuspension buffer, 20 mM HEPES, 0.3% CHAPS, pH 7.4, to the dried lipid mix 4. Heat gently to 50-60° C. for 1-2 minutes and vortex in short intervals until the lipids are dissolved to a clear or slightly hazy solution. […]

EGFR = EGFR (Homo sapiens, UniProt P00533); assay: Z′-LYTE / ADAPTA kinase assay, EGFR; type: biochemical
Chain of EGFR (P00533 25-1210): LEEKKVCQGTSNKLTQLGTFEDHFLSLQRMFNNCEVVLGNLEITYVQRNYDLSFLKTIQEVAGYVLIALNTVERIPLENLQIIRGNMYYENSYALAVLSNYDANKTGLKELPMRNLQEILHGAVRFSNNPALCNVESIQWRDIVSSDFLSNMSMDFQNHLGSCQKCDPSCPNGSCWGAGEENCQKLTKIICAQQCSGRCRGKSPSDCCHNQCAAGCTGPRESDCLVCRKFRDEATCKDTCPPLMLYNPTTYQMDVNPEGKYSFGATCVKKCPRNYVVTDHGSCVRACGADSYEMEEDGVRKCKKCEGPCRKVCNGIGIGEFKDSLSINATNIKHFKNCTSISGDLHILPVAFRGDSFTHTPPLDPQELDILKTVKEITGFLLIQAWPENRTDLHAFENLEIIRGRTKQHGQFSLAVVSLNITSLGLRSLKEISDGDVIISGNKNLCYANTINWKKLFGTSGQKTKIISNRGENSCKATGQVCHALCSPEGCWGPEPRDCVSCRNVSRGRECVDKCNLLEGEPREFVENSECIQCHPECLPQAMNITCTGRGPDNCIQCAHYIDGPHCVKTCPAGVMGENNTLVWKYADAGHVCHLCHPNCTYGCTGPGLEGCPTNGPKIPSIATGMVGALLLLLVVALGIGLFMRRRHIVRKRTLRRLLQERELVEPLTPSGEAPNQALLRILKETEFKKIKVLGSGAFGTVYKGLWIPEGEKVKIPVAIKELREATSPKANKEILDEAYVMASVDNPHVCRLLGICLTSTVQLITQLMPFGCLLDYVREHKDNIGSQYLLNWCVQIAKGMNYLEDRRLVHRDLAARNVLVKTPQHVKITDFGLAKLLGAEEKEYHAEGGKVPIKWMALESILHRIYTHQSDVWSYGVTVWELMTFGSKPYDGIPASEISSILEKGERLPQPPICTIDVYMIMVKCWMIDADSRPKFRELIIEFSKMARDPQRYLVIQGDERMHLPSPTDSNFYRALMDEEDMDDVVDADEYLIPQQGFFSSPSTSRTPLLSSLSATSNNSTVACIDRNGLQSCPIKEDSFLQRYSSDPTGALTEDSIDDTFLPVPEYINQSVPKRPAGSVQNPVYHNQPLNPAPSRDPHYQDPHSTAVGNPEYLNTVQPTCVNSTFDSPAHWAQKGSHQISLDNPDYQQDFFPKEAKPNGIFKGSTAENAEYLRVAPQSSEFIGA
Excerpt: as §1, with “Cleavage disrupts FRET between the donor (i.e., coumarin) and acceptor (i.e., fluorescein) fluorophores on the FRET-peptide, whereas uncleaved, phosphorylated FRET-peptides maintain FRET.” left out
(§2) A significant benefit of this ratiometric method for quantitating reaction progress is the elimination of well-to-well variations in FRET-peptide concentration and signal intensities. […]
(§3) Both cleaved and uncleaved FRET-peptides contribute to the fluorescence signals and therefore to the Emission Ratio. The extent of phosphorylation of the FRET-peptide can be calculated from the Emission Ratio. […]

DNA-PK = DNA-PK (Homo sapiens, UniProt P78527); assay: Z′-LYTE / ADAPTA kinase assay, DNA-PK; type: biochemical; conditions: read-out: DNA-PK % Inh. @ 100 nM
Excerpt: as §1, with “Cleavage disrupts FRET between the donor (i.e., coumarin) and acceptor (i.e., fluorescein) fluorophores on the FRET-peptide, whereas uncleaved, phosphorylated FRET-peptides maintain FRET.” left out
as §2, §3

[1] = Solubility determination (PBS 7.4, SIF, SGF); type: physicochemical; conditions: kinetic from dmso stock
Description: Preparation of stock solutions: The stock solutions of test compounds and control compound diclofenac were prepared in DMSO at the concentrations of 10 mM.
Simulated Gastric Fluid (SGF): An aqueous mixture including hydrochloric acid, sodium chloride, and pepsin (pH=1.2).
Simulated Intestinal Fluid (SIF): Prepared by dissolving 6.8 g of KH2PO4 into about 500 mL ultrapure water and adjust the solution to a pH 6.8 with 0.1 M NaOH. 10 g trypsin is then dissolved into ultrapure water. The two solutions are mixed well and diluted with ultrapure water to a final volume of 1000 mL.
485 μL of (SIF, SGF, PBS 7.4, FESSIF, or FESSGF) was added into each vial of the cap-less Solubility Sample plate. The assay was performed in duplicate. Add one stir stick to each vial and seal using a molded PTFE/Silicone plug. […] After completion of the 2 hours, plugs were removed and the stir sticks were removed using a big magnet, the samples from the Solubility Sample plate were transferred into the filter plate. Using the Vacuum Manifold, all the samples were filtered. Aliquot of 5 μL and 5 μL DMSO were taken from the filtrate followed by addition of 490 μL of a mixture of H2O and acetonitrile containing internal standard (1:1). A certain proportion of ultrapure water was used to dilute the diluent according to the peak shape. The dilution factor was changed according to the solubility values and the LC-MS signal response.
Preparation of 300 μM standards (STD): From the 10 mM DMSO STD plate, 6 μL was transferred into the remaining empty plate, and then 194 μL of DMSO was added to that plate to have a STD concentration of 300 μM. From the 300 μM DMSO STD plate, 5 μL DMSO STD and 5 μL SIF was transferred into the remaining empty plate, and then 490 μL of a mixture of H2O and acetonitrile containing internal standard (1:1) was added to that plate to have a final STD concentration of 3 μM. A certain proportion of ultrapure water was used to dilute the diluent according to the peak shape. The concentrations of the standard samples were changed according to the LC-MS signal response.
Procedure for sample analysis: The plate was placed into the well plate autosampler. The samples were evaluated by LC-MS/MS analysis.
Data analysis: All calculations were carried out using Microsoft Excel. The filtrate was analyzed and quantified against a standard of known concentration using LC coupled with mass spectral peak identification and quantitation. Solubility values of the test compound and control compound were calculated as follows: […]
Any value of the compounds that was not within the specified limits was rejected and the experiment was repeated.

[2] = Tolerability in the xenograft studies; type: in vivo; conditions: highest dose tested 100 mg/kg, daily dosing over >50 days, all xenograft studies
Description: Xenograft Studies. Female NCR nude mice (CrTac:NCr-Foxn1mu from Taconic), 6-7 weeks old, were implanted subcutaneously with 5×10^6 cells in a […] serum-free media/Matrigel® mixture into the region of the right axilla, Mice were randomized into treatment groups and treatments initiated when tumors reached 100 to 200 mg. Compound 2R was administered daily by oral gavage as a fine suspension in 1:2 propylene glycol in 1% Tween80, Na3PO4 based upon individual animal body weight (0.2 mL/20 g). Subcutaneous tumor volume and body weights were measured two to three times a week. Tumor volumes were calculated by measuring two perpendicular diameters with calipers and using the formula: tumor volume=(length×width2)/2. Individual mice were dosed daily until their tumor burden reached 500 mg for the CAL-27 and HCC-70 models or 1000 mg for the CAL-33 model, to allow for calculation of increase in progression-free survival. Percent increase in survival was calculated by comparing the median time to reach either 500 mg or 1000 mg in the treated group versus the vehicle control group. A complete response (CR) is defined as a tumor below the limits of palpation ([…]).

[3] = Pharmacokinetics in mice, single IV / oral dose; type: in vivo
Description: (§4) The pharmacokinetics of Compound 2R (HCl salt) and Comparative Compound 2 were studied following a single intravenous and/or oral administration to mice, dogs, and monkeys (n=3 for all species). The IV and PO solution formulations for Comparative Compound 2 contained 20% (w/v) propylene glycol, 75% (w/v) 50 mM trisodium phosphate (pH 12), and 5% (w/v) Kolliphor EL. The formulation for Compound 2R contained 1:2 propylene glycol: 1% Tween 80/Na3PO4 (50 mM). Subsequent pharmacokinetic data analysis was performed using non-compartmental analysis modules in Phoenix/WINNONLIN 6.3 (Pharsight, St. Louis, Missouri, USA), and the linear trapezoidal rule was used for AUC calculation. Terminal elimination half-life (t½) was calculated based on data points (≥3) in the terminal phase; Tmax=Time of maximum observed concentration; AUClast/D=Area under the concentration-time curve from time zero to the last observed concentration/divided by dose; Cl_obs=Total body clearance; Cmax=maximum observed concentration; F=bioavailability of oral dose form. Blood samples were assayed for compounds using protein precipitation with acetonitrile followed by HPLC/MS/MS analysis. Blood concentration-time data were analyzed by non-compartmental methods.

[4] = Pharmacokinetics in dogs, single IV / oral dose; type: in vivo
Description: as §4

[5] = Pharmacokinetics in monkeys, single IV / oral dose; type: in vivo
Description: as §4

[6] = simulated intestinal fluid (SIF), fassgf or other biorelevant, simulated intestinal fluid pH 6.8, 25° C., read-out: Solubility SIF

IC50 (PI3Ka): 20 to 200 nM
inhibition at 0.1 µM (PI3Ka): 80 to 90%
IC50 (EGFR): 20 to 200 nM
inhibition at 0.1 µM (EGFR; read-out: EGFR % Inh. @ 100 nM): > 90%
inhibition at 0.1 µM (DNA-PK): > 90%
solubility at 2 h [1, 6]: ≤ 20 µM
SMILES: CS(=O)(=O)Nc1cncc(-c2ccc3ncnc(NCc4ccccc4)c3c2)c1 [Comparative Compound 3, reference compound]

SMILES: C[C@@H](Nc1ncnc2ccc(-c3cnc(Cl)c(NS(C)(=O)=O)c3)cc12)c1ccccc1 [Compound 2R, N-(2-chloro-5-(4-((1R-phenylethyl)amino)quinazolin-6-yl)pyridin-3-yl)methanesulfonamide]
Tolerability (body weight loss, clinical signs) [2]: well tolerated
increase in exposure (AUClast/D) vs Comparative Compound 2 ([3]; IV): ~3 fold
enhanced exposure (AUClast/D) relative to Comparative Compound 2 ([3]; oral): 3 fold
increase in exposure (AUClast/D) vs Comparative Compound 2 ([4]; IV): ~15 fold
improvement in exposure (AUClast/D) vs Comparative Compound 2 ([4]; oral): > 28 fold
increase in exposure (AUClast/D) vs Comparative Compound 2 ([5]; IV): ~3 fold
improvement in exposure (AUClast/D) vs Comparative Compound 2 ([5]; oral): > 74 fold

IC50 (PI3Ka): 2 to 20 nM
solubility at 2 h ([1]; aqueous buffer, PBS pH 7.4, 25° C., read-out: Solubility pH 7.4 PBS buffer): ≤ 20 µM
solubility at 2 h ([1]; simulated gastric fluid (SGF), simulated gastric fluid pH 1.2, 25° C., read-out: Solubility SGF): > 200 µM
solubility at 2 h [1, 6]: ≤ 20 µM
SMILES: C[C@@H](Nc1c(C#N)cnc2ccc(-c3cnc(Cl)c(NS(C)(=O)=O)c3)cc12)c1ccccc1 [Compound 48R, N-(2-chloro-5-(3-cyano-4-((1R-phenylethyl)amino)quinolin-6-yl)pyridin-3-yl)methanesulfonamide]

IC50 (PI3Ka): < 2 nM
SMILES: C[C@H](Nc1c(C#N)cnc2ccc(-c3cnc(Cl)c(NS(C)(=O)=O)c3)cc12)c1ccccc1 [Compound 48S, N-(2-chloro-5-(3-cyano-4-((1S-phenylethyl)amino)quinolin-6-yl)pyridin-3-yl)methanesulfonamide]

SMILES: C[C@@H](Nc1c(C#N)cnc2ccc(-c3cnc(Cl)c(NS(C)(=O)=O)c3)cc12)c1ccc(F)cc1 [Compound 97R, N-[2-chloro-5-[3-cyano-4-[[(1R)-1-(4-fluorophenyl)ethyl]amino]-6-quinolyl]-3-pyridyl]methanesulfonamide]
inhibition at 0.1 µM (PI3Ka): 80 to 90%

SMILES: CS(=O)(=O)Nc1cc(-c2ccc3ncc(C#N)c(NC4c5ccccc5CC4O)c3c2)cnc1Cl (stereo not drawn) [Compound 103, N-[2-chloro-5-[3-cyano-4-[(2-hydroxyindan-1-yl)amino]-6-quinolyl]-3-pyridyl]methanesulfonamide]
inhibition at 0.1 µM (PI3Ka): > 90%

SMILES: CS(=O)(=O)Nc1cc(-c2ccc3ncc(C#N)c(NC4(c5ccccc5)CC4)c3c2)cnc1Cl [Compound 106, N-[2-chloro-5-[3-cyano-4-[(1-phenylcyclopropyl)amino]-6-quinolyl]-3-pyridyl]methanesulfonamide]
inhibition at 0.1 µM (PI3Ka): > 90%
